# “And” between values parts separate entries of the source, which are not always exact repeats. Equal values may be shown once. Square brackets hold non-standard residues; d marks the D form. * marks the point of attachment. Guanidyl = -C(=N+Me2)NMe2 on the N-terminal amine (tetramethylguanidyl cap), CN(C)C(=[N+](C)C)*; Benzoyl(4-benzoyl) = O=C(c1ccccc1)c1ccc(C(=O)*)cc1; Palmitoyl = CCCCCCCCCCCCCCCC(=O)*; NMeV = CN[C@H](C(=O)O)C(C)C; NMeA = CN[C@@H](C)C(=O)O
# Assays:
# [1] = tested on: Drosophila suzukii larvae; test: Drosophila suzukii larval feeding (Example 8; peptide screening); type: in vivo; set-up: key to D. suzukii (Sig Diff Grp): A indicates a significant difference in survival compared with control (blank).; B indicates a significant difference in survival compared with scrambled capa1.; C indicates a significant difference in survival compared with scrambled capa2; conditions: for D. suzukii (Mean% Lethality ± SD) / D. suzukii (Sig Diff Grp): Peptide screening, Table 5; for D. suzukii (Mean% Lethality ± SD): blank control 20.33; for D. suzukii (Sig Diff Grp): difference in survival
# Procedure: (§1) First to Fourth generations of peptides were produced with varying structures and tested for CAPA receptor agonist activity, and screened for lethality in vivo against D. suzukii and M. persicae as per methods in example 2 and example 8. The top performing peptides were selected and gave rise to the list of CAPA1 and CAPA2 peptides provided above in Table 1 which were then further tested in the following applied examples.
# Peptides were tested at concentrations ranging from [10^−4 M] to [10^−7 M] in a final volume of 200 μl of 0.8% agarose containing 0.09% m-Cresol purple pH marker dye (Sigma) and 5% sucrose (Sigma).
# Agarose was melted in dH2O, before addition of sucrose and dye. The agarose/dye solution was then allowed to cool to 60° C. 96 well plates (flat-bottomed 3596 TC-plates; Corning) containing 20 μl volumes of neuropeptide per well were prepared, and 180 μl agarose/dye solution dispensed into each well via a Distriman repetitive micro-pipettor (Gilson). Controls contained 20 μl dH2O as a ‘sham’ treatment with 180 μl of the 0.8% agarose/dye solution. Plates were agitated at 800 rpm, to ensure mixing, at 60° C. (Eppendorf Thermomixer C). Plates were then allowed to cool, and agarose/dye solution solidify, prior to use.
# Each peptide was assayed with a minimum of 7 to maximum 9 late L2/early L3 Spotted wing Drosophila, Drosophila suzukii, (feeding) larvae per well, minimum n=8 wells per peptide concentration and a minimum n=12 control wells per plate. The selected larvae were first washed 2× in ice cold Drosophila Schneider's liquid medium (ThermoFisher) before insertion into wells to remove extraneous food. After complete insertion of all larvae the plates were covered with breathable sealing membrane for multi-well plates (Sigma).
# Larvae were assayed for lethality after 48 hr exposure at 21° C. and findings recorded. During examination the assay plate was kept on ice, to reduce larval locomotor activity (wandering), and larvae in each well were examined using a binocular stereomicroscope (Zeiss).
# The water control group was used to determine baseline lethality. Results for neuropeptide analogues were calculated as % lethality in the remaining population after adjustment for the baseline. Results are shown in Tables 7 and 8 below, and in FIG. 1.
# M. persicae [2] = test: Feeding of aphids with peptides in artificial diet (Example 2; peptide screening, honeydew); type: in vivo, Myzus persicae; conditions: Peptide screening, Table 5
# Excerpt: as §1
# The aphid feeding protocol was devised according to Sadeghi et al (2009) as explained in example 1. Feeding discs were designed and manufactured as above. A standard sucrose-based artificial diet for M. persicae (30 aphids per chamber, 3 chambers per experiment unless otherwise stated) was produced as described in example 1 (Sadeghi et al, J. Insect Science, 2009) and provided the basal diet to which peptides were added for screening purposes. Peptides were diluted individually in the artificial diet to 10^−5 M. Lethality was scored after up to 120 hours (IRAC guidelines for aphid testing).
# Membrane discs were also included to collect ‘honeydew’ secreted by feeding aphids and stained with ninhydrin to observe feeding patterns.
# Comparison of purple stain in controls to treated aphids, show there is very little colour on many membranes where peptides were added.
# Capa peptides cause mortality in M. persicae via feeding: At 120 hours, AH383 and AH387 peptides induce ˜60% mean (and median) lethality. Although mean lethality is lower with AH270/PEGAH270 (40%), 100% lethality is observed in one sample of 30 insects (AH270); and 90% in at least one sample of each of AH383, AH387 and PEGAH270 (FIG. 3). Note that PEGAH270 is a pegylated form of peptide AH270.
# [3] = tested on: bumblebees (Bombus terrestris); test: Bumblebee acute oral toxicity test; type: in vivo
# Procedure: Oral toxicity against bumblebees (Bombus terrestris) was determined as previously described:
# OECD (2017), Test No. 247: Bumblebee, Acute Oral Toxicity Test, OECD Guidelines for the Testing of Chemicals, Section 2, OECD Publishing, Paris, https://doi.org/10.1787/9789264284128-en.
# Example data are provided for peptides, AH56, AH257, AH259 in Tables 4, 5 below. […]
# Data were acquired for: feeding behaviour—weight of liquid consumed pre- and post-treatment; lethality (days).
# There was no negative impact on feeding behaviour from capa peptides. Acute bumblebee toxicity was also assessed for other peptide candidates including: AH270, PEG270. Overall, capa peptides are bee safe.
# M. persicae [4] = test: Feeding of aphids with peptides in artificial diet (Example 1); type: in vivo, Myzus persicae; conditions: 10^−5 M
# Procedure: A standard artificial diet for M. persicae was produced as described in Van Emden (2009) and provided the basal diet to which peptides were added for screening purposes. Peptides were diluted individually in the artificial diet to a pre-determined concentration.
# Feeding apparatus were constructed using a set-up developed by Sadeghi et al (2009). For this, a piece of Parafilm was stretched over a Plexiglas ring (h=4 cm, Ø=3 cm) and 100 μl of the artificial diet containing the desired neuropeptide analogue was pipette onto the Parafilm membrane. A second piece of Parafilm, stretched to 4 times the original thickness, was stretched over the original layer, sandwiching the artificial diet between two layers of Parafilm. A strip of Parafilm was wrapped around the circumference of the Plexiglas ring, sealing in the diet. A plastic ring (h=1.2 cm, Ø=3.4 cm) was subsequently placed over the Parafilm layer, creating a walled chamber in which to house test aphids in contact with the Parafilm layer containing the artificial diet. Finally, a small Petri dish (h=1 cm, Ø=3.6 cm), modified for ventilation with net cloth, was placed on top of each feeding apparatus to prevent aphid escape.
# To obtain aphids for use in experiments, reproducing anholocyclic adults were placed on individual excised leaves of Chinese cabbage at densities of 5 adults per leaf and allowed to reproduce for 24 h. The stem of each excised leaf was held within a 0.5 mL Eppendorf tube containing water via a punctured hole in the Eppendorf lid, and placed individually within a microcage (L=4 cm, Ø=9.5 cm). Following 24h, adults were removed and resultant first instar nymphs (<1 day old and synchronised in age to within 24h) retained. Nymphs were allowed to develop on the Chinese cabbage for 5 days. On day 5, (3rd instar) nymphs were transferred onto the artificial diet containing a neuropeptide analogue at densities of 1 per feeding chamber and monitored daily until death. Aphids were transferred to fresh artificial diet (containing neuropeptide analogue or water control) every 5 days.
# The water control group was used to determine baseline lethality. Results for neuropeptide analogues were calculated as % lethality in the remaining population after adjustment for the baseline.
# Myzus persicae aphids = test: Topical application by spraying, Potter Spray Tower (Example 3); type: in vivo; conditions: 10^−5 M; 48 hours post spray
# Procedure: Aphids were exposed to test peptides in the absence of additional external stress conditions.
# Brassica rapa (Chinese cabbage; Wong Bok) were infested with 30 adult Myzus persicae aphids per plant. Aphids were left at least 2 hours to settle and begin feeding from the host plant.
# Potter Spray Tower (Burkard Manufacturing) was ‘primed’ by spraying 1000 μl of liquid coating the inside of the tower. Vehicle spray only (Croda ATPlus UEP 100 LQ-(CQ) 0.1% v/v) was used as a control.
# Spray volumes for all solutions were 3000 μl. […] After spraying was completed the plant was allowed to rest on the spray platform for 30 seconds to allow settling of the sprayed chemical.
# Post peptide application, each condition was placed into its own individual Bugdorm (Watkins and Doncaster, 44545), to prevent repulsed or displaced aphids moving from one condition to another. Numbers of alive and dead aphids on the plant were counted 48 hours post spray, and the presence of any fresh nymphs noted. Plants were watered prior to spraying but not afterwards to eliminate the possibility of drowning any aphids present or washing off the sprayed liquid.
# The vehicle control group was used to determine baseline lethality. Results for neuropeptide analogues were calculated as % lethality in the remaining population after adjustment for the baseline.
# [5] = Table 11, individual bees, peptide 1 × 10 − 5M or Spirotetramat 25 uM
molecule,measurement,setting,value
Ac-LYAFPRV-NH2 [AH32],D. suzukii (Mean% Lethality ± SD),[1],41.50%
same,D. suzukii (Sig Diff Grp),[1],A
Palmitoyl-LYAFPRV-NH2 (SMILES CCCCCCCCCCCCCCCC(=O)N[C@@H](CC(C)C)C(=O)N[C@@H](Cc1ccc(O)cc1)C(=O)N[C@@H](C)C(=O)N[C@@H](Cc1ccccc1)C(=O)N1CCC[C@H]1C(=O)N[C@@H](CCCNC(=N)N)C(=O)N[C@H](C(N)=O)C(C)C) [AH62],M. persicae (% Lethality),M. persicae [2],29%
Palmitoyl-LVAFPRV-NH2 (SMILES CCCCCCCCCCCCCCCC(=O)N[C@@H](CC(C)C)C(=O)N[C@H](C(=O)N[C@@H](C)C(=O)N[C@@H](Cc1ccccc1)C(=O)N1CCC[C@H]1C(=O)N[C@@H](CCCNC(=N)N)C(=O)N[C@H](C(N)=O)C(C)C)C(C)C) [AH59],D. suzukii (Mean% Lethality ± SD),[1],44.13%
same,D. suzukii (Sig Diff Grp),[1],A
H-Nle-LYAFPRV-NH2 [AH51],D. suzukii (Mean% Lethality ± SD),[1],38.63%
same,D. suzukii (Sig Diff Grp),[1],A
"O=[N+]([O-])NC1=NCCN1Cc1ccc(Cl)nc1 [imidacloprid, Imidacloprid, reference compound]",lethality of bumblebees,"[3]; 28.3 uM, on day 1",100%
same,dead?,"[3]; Table 10, individual bees, peptide ×10−5M or imidacloprid 28.3 uM in 50% sucrose, 0.1% ATPlus",1
same,Est weight sucrose consumed post testing/day,"[3]; individual bees, peptide ×10−5M or imidacloprid 28.3 uM in 50% sucrose, 0.1% ATPlus",0.0822 grams/day and 0.0000 grams/day and 0.0495 grams/day and 0.0562 grams/day and 0.2205 grams/day and 0.4394 grams/day
same,"Feeding impacted? (+ve feeding increased post pep, −ve feeding decreased post pep)","[3]; individual bees, post minus pre testing sucrose consumption",−0.1179 grams/day and −0.1209 grams/day and −0.1306 grams/day and −0.3025 grams/day and −0.1495 grams/day and −0.1412 grams/day and 0.0704 grams/day and −0.3396 grams/day and 0.1955 grams/day and −0.2914 grams/day and −0.3507 grams/day
same,"T-test outcome, sucrose consumed Pre vs Post",[3]; per treatment group,Feeding sig reduced
4-Benzoyl benzoic-LVAFPRV-NH2 ({Benzoyl(4-benzoyl)}-LVAFPRV-NH2; SMILES CC(C)C[C@H](NC(=O)c1ccc(C(=O)c2ccccc2)cc1)C(=O)N[C@H](C(=O)N[C@@H](C)C(=O)N[C@@H](Cc1ccccc1)C(=O)N1CCC[C@H]1C(=O)N[C@@H](CCCNC(=N)N)C(=O)N[C@H](C(N)=O)C(C)C)C(C)C) [AH55],D. suzukii (Mean% Lethality ± SD),[1],54.50%
Guanidyl-LV-(Me)A-FPRV-NH2 (Guanidyl-LV[NMeA]FPRV-NH2; SMILES CC(C)C[C@H](NC(N(C)C)=[N+](C)C)C(=O)N[C@H](C(=O)N(C)[C@@H](C)C(=O)N[C@@H](Cc1ccccc1)C(=O)N1CCC[C@H]1C(=O)N[C@@H](CCCNC(=N)N)C(=O)N[C@H](C(N)=O)C(C)C)C(C)C) [AH258],D. suzukii (Mean% Lethality ± SD),[1],47.75%
same,D. suzukii (Sig Diff Grp),[1],A
Ac-LVAFPRV-NH2 [AH33],D. suzukii (Mean% Lethality ± SD),[1],43.50%
same,D. suzukii (Sig Diff Grp),[1],A
4-Benzoyl benzoic-LYAFPRV-NH2 ({Benzoyl(4-benzoyl)}-LYAFPRV-NH2; SMILES CC(C)C[C@H](NC(=O)c1ccc(C(=O)c2ccccc2)cc1)C(=O)N[C@@H](Cc1ccc(O)cc1)C(=O)N[C@@H](C)C(=O)N[C@@H](Cc1ccccc1)C(=O)N1CCC[C@H]1C(=O)N[C@@H](CCCNC(=N)N)C(=O)N[C@H](C(N)=O)C(C)C) [AH49],D. suzukii (Mean% Lethality ± SD),[1],41.13%
same,D. suzukii (Sig Diff Grp),[1],A
"CCOC(=O)OC1=C(c2cc(C)ccc2C)C(=O)N[C@]12CC[C@@H](OC)CC2 [Spirotetramat, reference compound]","Liquid post exposure (weight), Mean","[3]; Table 11, group mean, n=10",1.109 g
same,"liquid consumed per day post exposure, Mean","[3]; Table 11, group mean, n=10",0.2773 g
same,Liquid post exposure (weight),[3]; [5],0.7878 g and 1.2332 g and 0.2963 g and 1.7853 g and 1.2062 g and 2.1130 g and 0.6196 g and 0.7732 g and 1.3842 g and 0.8924 g
same,days alive,[3]; [5],4 days
same,liquid consumed per day post exposure,[3]; [5],0.1970 g and 0.3083 g and 0.0741 g and 0.4463 g and 0.3016 g and 0.5283 g and 0.1549 g and 0.1933 g and 0.3461 g and 0.2231 g
H-LYAFAR-(Me)V-NH2 (H-LYAFAR[NMeV]-NH2; SMILES CC(C)C[C@H](N)C(=O)N[C@@H](Cc1ccc(O)cc1)C(=O)N[C@@H](C)C(=O)N[C@@H](Cc1ccccc1)C(=O)N[C@@H](C)C(=O)N[C@@H](CCCNC(=N)N)C(=O)N(C)[C@H](C(N)=O)C(C)C) [AH380],"Feeding D. suzukii, % lethality in population after adjustment for baseline","[1]; 10^−5 M, 48 hr exposure",45%
same,"Feeding Aphid, % lethality in population after adjustment for baseline",M. persicae [4],12%
same,"Spray Aphid, % lethality in population after adjustment for baseline",Myzus persicae aphids,33%

# Reference: patent US20240373849A1, “INSECT NEUROPEPTIDE ANALOGUES” (THE UNIVERSITY COURT OF THE UNIVERSITY OF GLASGOW, priority 2020, published 2024)
